Laboratory results taken from ChEMBL document CHEMBL5131385, “Novel piperazine based benzamide derivatives as potential anti-glioblastoma agents inhibiting cell proliferation and cell cycle progression” (Eur J Med Chem, 2022).
The source made the active and inactive calls. The calls are words filed in the database; no cut-off is given here.

Experiments:
C6 = assay: Antiproliferative activity against rat C6 cells assessed as inhibition of cell proliferation measured after 72 hrs by CCK8 assay; type: functional, cell-based; details: C6, 72 h
U-251 [1] = assay: Antiproliferative activity against human U-251 cells assessed as inhibition of cell proliferation measured after 72 hrs by CCK8 assay; type: functional, cell-based; details: U-251, 72 h
[2] = Antiproliferative activity against human U-87 MG cells assessed as inhibition of cell proliferation measured after 72 hrs by CCK8 assay; type: functional, cell-based, U-87MG ATCC
[3] = Induction of apoptosis in human U-87 MG cells assessed as late apoptotic cells at 1.20 uM incubated for 72 hrs by Annexin V-FITC/PI staining based flow cytometry method (reference value: 0.42 %); type: functional, U-87MG ATCC; details: dose 1.2 µM
U-251 [4] = assay: Induction of apoptosis in human U-251 cells assessed as necrotic cells at 6 uM incubated for 72 hrs by Annexin V-FITC/PI staining based flow cytometry method (Rvb =0.51 %); type: functional
U-251 [5] = assay: Induction of apoptosis in human U-251 cells assessed as early apoptotic cells at 6 uM incubated for 72 hrs by Annexin V-FITC/PI staining based flow cytometry method (Rvb =1.96 %); type: functional
U-251 [6] = assay: Induction of apoptosis in human U-251 cells assessed as late apoptotic cells at 6 uM incubated for 72 hrs by Annexin V-FITC/PI staining based flow cytometry method (Rvb =1.31 %); type: functional
[7] = Induction of apoptosis in human U-87 MG cells assessed as necrotic cells at 1.20 uM incubated for 72 hrs by Annexin V-FITC/PI staining based flow cytometry method (reference value: 0.21 %); type: functional, U-87MG ATCC; details: dose 1.2 µM
U-87MG ATCC [8] = assay: Antitumor activity against human U-87 MG cells xenografted in BALB/c mouse assessed as decrease in tumor weight at 10 mg/kg,ip bid for 1 month; type: functional, organism-based; details: time 1.0 months
U-251 [9] = assay: Induction of apoptosis in human U-251 cells assessed as viable cells at 6 uM incubated for 72 hrs by Annexin V-FITC/PI staining based flow cytometry method (reference value: 96.22 %); type: functional; details: read-out: Activity
[10] = Induction of apoptosis in human U-87 MG cells assessed as early apoptotic cells at 1.20 uM incubated for 72 hrs by Annexin V-FITC/PI staining based flow cytometry method (reference value: 2.53 %); type: functional, U-87MG ATCC; details: dose 1.2 µM
[11] = Induction of apoptosis in human U-87 MG cells assessed as viable cells at 1.20 uM incubated for 72 hrs by Annexin V-FITC/PI staining based flow cytometry method (reference value: 96.84 %); type: functional, U-87MG ATCC; details: read-out: Activity
U-87MG ATCC [12] = assay: Antitumor activity against human U-87 MG cells xenografted in BALB/c mouse assessed as decrease in tumor volume at 10 mg/kg,ip bid for 1 month; type: functional, organism-based; details: time 1.0 months

IC50 (U-251 [1]) [µM] | SMILES | IC50 (C6) [µM] | IC50 [2] [µM] | further results
5.89 | O=C(NCc1ccc(NC(=O)c2ccccc2N2CCN(CCF)CC2)cc1)OCc1cccnc1 | 0.46 | 0.41 | 
6.79 | CCCN1CCN(c2ccccc2C(=O)Nc2ccc(CNC(=O)OCc3cccnc3)cc2)CC1 | 0.36 | 0.42 | 
25 | COCCN1CCN(c2cccc(F)c2C(=O)Nc2ccc(CNC(=O)OCc3cccnc3)cc2)CC1 | 0.79 | 4 | 
9.29 | COCCN1CCN(c2c(C)cccc2C(=O)Nc2ccc(CNC(=O)OCc3cccnc3)cc2)CC1 | 0.44 | 1.01 | 
4.05 | O=C(NCc1ccc(NC(=O)c2ccccc2N2CCN(C3CCC3)CC2)cc1)OCc1cccnc1 | 1.03 | 0.62 | 
3.23 | O=C(NCc1ccc(NC(=O)c2ccccc2N2CCN(CCO)CC2)cc1)OCc1cccnc1 | 0.29 | 0.64 | 
6.25 | CN1CCN(c2ccccc2C(=O)Nc2ccc(CNC(=O)OCc3cccnc3)cc2)CC1 | 0.52 | 1.25 | 
> 30 | COCCN1CCN(c2ccc(C(F)(F)F)cc2C(=O)Nc2ccc(CNC(=O)OCc3cccnc3)cc2)CC1 | 13.9 | 8.58 | 
6.11 | O=C(NCc1ccc(NC(=O)c2ccccc2N2CCOCC2)cc1)OCc1cccnc1 | 4.82 | 0.89 | 
2.35 | O=C(NCc1ccc(NC(=O)c2ccccc2N2CCN(C3COC3)CC2)cc1)OCc1cccnc1 | 0.57 | 0.49 | 
> 30 | Cn1nnc2c(C(N)=O)ncn2c1=O [TEMOZOLOMIDE] | > 30 | > 30 | Activity [3]: 0.98%; Activity (U-251 [4]): 0.49%; Activity (U-251 [5]): 1.6%; Activity (U-251 [6]): 1.73%; Activity [7]: 0.27%; Activity (U-87MG ATCC [8]): Active; viability at 6 µM (U-251 [9]): 96.2%; Activity [10]: 2.5%; viability at 1.2 µM [11]: 96.2%; Activity (U-87MG ATCC [12]): Active
12.7 | COCCN1CCN(c2ccc(C)cc2C(=O)Nc2ccc(CNC(=O)OCc3cccnc3)cc2)CC1 | 1.29 | 1.9 | 
10.5 | COCCN1CCN(c2ccc(Cl)cc2C(=O)Nc2ccc(CNC(=O)OCc3cccnc3)cc2)CC1 | 1.76 | 1.01 | 
5.42 | CS(=O)(=O)N1CCN(c2ccccc2C(=O)Nc2ccc(CNC(=O)OCc3cccnc3)cc2)CC1 | 0.85 | 1.02 | 
> 30 | Nc1ccccc1NC(=O)c1ccc(CNC(=O)OCc2cccnc2)cc1 [ENTINOSTAT] | 0.33 | 4.34 | 
20.5 | COCCN1CCN(c2ccc(OC)cc2C(=O)Nc2ccc(CNC(=O)OCc3cccnc3)cc2)CC1 | 1.05 | 3.47 | 
2.97 | COCCN1CCN(c2cc(C)ccc2C(=O)Nc2ccc(CNC(=O)OCc3cccnc3)cc2)CC1 | 0.89 | 0.53 | 
24.7 | COCCN1CCN(c2ccc(Br)cc2C(=O)Nc2ccc(CNC(=O)OCc3cccnc3)cc2)CC1 | 2.65 | 2.66 | 
3.36 | COCCN1CCN(c2ccccc2C(=O)Nc2ccc(CNC(=O)OCc3cccnc3)cc2)CC1 | 0.24 | 0.4 | 
6.09 | CC(C)N1CCN(c2ccccc2C(=O)Nc2ccc(CNC(=O)OCc3cccnc3)cc2)CC1 | 0.41 | 0.25 | 
2.3 | COCCN1CCN(c2cc(F)ccc2C(=O)Nc2ccc(CNC(=O)OCc3cccnc3)cc2)CC1 | 0.22 | 0.53 | 
10.6 | O=C(NCc1ccc(NC(=O)c2ccccc2N2CCN(CC3CC3)CC2)cc1)OCc1cccnc1 | 0.8 | 1.08 | 
4.55 | CCN1CCN(c2ccccc2C(=O)Nc2ccc(CNC(=O)OCc3cccnc3)cc2)CC1 | 0.36 | 0.43 | 
> 30 | COCCN1CCN(c2ccc(NC(=O)OC(C)(C)C)cc2C(=O)Nc2ccc(CNC(=O)OCc3cccnc3)cc2)CC1 | > 30 | > 30 | 
> 30 | COCCN1CCN(c2ccc(-c3ccccc3)cc2C(=O)Nc2ccc(CNC(=O)OCc3cccnc3)cc2)CC1 | > 30 | > 30 | 
4 | COCCN1CCN(c2ccc(N)cc2C(=O)Nc2ccc(CNC(=O)OCc3cccnc3)cc2)CC1 | 0.26 | 0.56 | 
2.7 | O=C(NCc1ccc(NC(=O)c2ccccc2N2CCN(C3CC3)CC2)cc1)OCc1cccnc1 | 1.12 | 1.04 | 
